Assays:
[1] = system: liver cancer; assay: Animal test of liver cancer therapy, hepatic artery injection; format: in vivo
Excerpt: The result could be found in animal test: the group having NS hepatic artery injection lived 12.7 days on average; the group having lib-adriamycin hepatic artery injection lived 18.7 days on average; HSA-NP hepatic artery injection lived 20.7 days on average; the group having Gal-HAS-NP treatment lived 39.4 days on average.
Meanwhile, the aspiration of magnetic nanoparicles produced a longer functional diameter, which caused embolism in tumor blood vessels and lack of blood and oxygen in tumor in order to improve the sensitivity and effect of chemotherapeutics. Without adding magnetic field, the distribution rate of ADM-GHMN in tumorous and normal livers was 2.74, which also had some anti-tumor effects.

[2] = rabbit
[3] = system: HepG2 cell; assay: Transwell invasion in vitro; format: cell-based
Excerpt: The tumor cell's mobility and the invasion are close to each other. The tumor cell has the ability of amoeba type's movement, and it was confirmed by many people. Simultaneously, many overseas scholars reported that there is a direct ratio relation between the mobility and the invasion ability of the cancer cell. […] There is significant difference between any two groups. […] HSA-magnetic-adriamycin-nanoparticles group is different from galactosyl-HSA-adriamycin-nanoparticles group in it.

[4] = system: hepatocelular cell; assay: Apoptosis, quadrilateral zone in drug toxicity experiment; format: cell-based
[5] = Drug release in vitro, dynamic dialysis; format: physicochemical; conditions: for Releasing (%): physiological saline
Procedure: Drug releases in vitro. According to dynamic dialysis, taking physiological saline as medium, 4 ml of the solution would be taken at certain time, and the same volume of the medium would be added in. The absorbency was measured to get the solving efficiency according to the standard curve formula. At the same time, the drug releasing experiment of adriamycin standard substance was done in order to observe the control release of the dialysis bag.

With COc1cccc2c1C(=O)c1c(O)c3c(c(O)c1C2=O)C[C@@](O)(C(=O)CO)C[C@@H]3O[C@H]1C[C@H](N)[C@H](O)[C@H](C)O1 [adriamycin] the average survival ([1]; hepatic artery injection) was 18.7 days, the “tumor necrosis extent in pathological section” value ([1]; in vivo) was “no badly necrosis but most light or medium leveled necrosis” and the C l [2] was 0.4233 ± 0.3223 mg/m/(mg/l). The T1/2β ([2]; elimination phase) was 883.2164 ± 2198.4914 m, the A ([2]; in vivo) was 0.1362 ± 0.0185 mg · l − 1 and the “AUC0→∞” value ([2]; in vivo) was 14.8163 ± 24.789 m · mg/l. It also gave a B ([2]; in vivo) of 0.0109 ± 0.0028 mg · l − 1, a Gamma ([2]; in vivo) of 0.5463 ± 0.1663 m − 1 and a T1/2α ([2]; in vivo) of 13.8169 ± 3.5845 m. For the same compound, the V c ([2]; in vivo) was 18.6816 ± 2.3663 (mg)/(mg/l), the α ([2]; in vivo) was 0.0523 ± 0.0161 m − 1 and the “inhibition of invasive power” value [3] was “can inhibit invasive power of the HepG2 cell”. For the same compound, the “characteristic quadrilateral zone present” value [4] was “characteristic quadrilateral zone”, the “Releasing (%)” value ([5]; 0.5 h) was 78.21% and the “Releasing (%)” value ([5]; 1 h) was 91.34%. For the same compound, the “Releasing (%)” value ([5]; 2 h) was 100% and the “release / releasing efficiency” value ([5]; time not stated (Tab 6)) was 91.34%.
